Two substances from US10954305B2 (Immunomedics, Inc., priority 2016, dated 2021) can be followed below.

In one series the test system is Capan-1 xenografts. As to the kind of experiment: combined radioimmunotherapy and ADC, Capan-1 xenograft. It is filed as in vivo, nude mice. The source says:
The present study examined combinations of ^90Y-hPAM4 IgG with RS7-SN-38 in nude mice bearing 0.35 cm^3 subcutaneous xenografts of the human pancreatic cancer cell line, Capan-1. […] These studies provide the first evidence that combined radioimmunotherapy and ADC enhances efficacy at safe doses.

The subject of a further series is MDA-MB-468. Put plainly: ADCC, LDH-release assay. It is filed as cell-based, human. Conditions: 33.3 nM, E:T 50:1. On the procedure:
Briefly, target cells (MDA-MB-468, NIH:OVCAR-3, or BxPC-3) were plated at 1×10^4 cells/well in a 96-well, black, flat-bottom plate and incubated overnight. The next day, peripheral blood mononuclear effector cells (PBMCs) were freshly isolated from a donor and added to assigned wells on the reaction plate at an E:T ratio of 50:1. Acquisition of human PBMCs was done under the approval of the New England Institutional Review Board (Newton, Mass.). Test reagents were added to their assigned wells at a final concentration of 33.3 nM. One set of wells received ADCC assay medium alone for background control and another set of wells received cells alone plus TritonX100 for maximum cells lysis control. The plate was incubated for 4 h at 37° C. After 4 h, target cell lysis was assessed by a homogenous fluorometric LDH release assay (Cyto Tox-One Homogenous Membrane Integrity Assay; Promega, Cat. G7891).
The plates were read (544 nm-590 nm) using an Envision plate reader (PerkinElmer LAS, Inc.; Shelton, Conn.). Data were analyzed by Microsoft Excel. Percent specific lysis was calculated as follows: […]

Series [1] addresses T1, Trop-2 on multiple cell lines (Homo sapiens, UniProt P09758).
T1 construct: endogenous in cells; host or cells: human solid tumour cell lines
T1 sequence (P09758 27-323): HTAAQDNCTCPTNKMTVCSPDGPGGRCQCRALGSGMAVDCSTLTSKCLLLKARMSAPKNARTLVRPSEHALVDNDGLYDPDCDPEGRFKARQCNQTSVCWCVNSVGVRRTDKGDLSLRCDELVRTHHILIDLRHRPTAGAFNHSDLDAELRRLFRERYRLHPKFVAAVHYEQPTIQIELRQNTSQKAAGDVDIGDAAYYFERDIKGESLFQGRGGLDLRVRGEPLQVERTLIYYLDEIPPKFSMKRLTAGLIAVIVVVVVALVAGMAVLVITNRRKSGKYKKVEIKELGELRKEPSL
As to the kind of experiment: in vitro cell binding. The protocol: LumiGLO Chemiluminescent Substrate System (KPL, Gaithersberg, Md.) was used to detect antibody binding to cells. Briefly, cells were plated into a 96 black-well, flat-clear-bottom plate overnight. Antibodies were serially diluted 1:2 and added in triplicate, yielding a concentration range from 0.03 to 66.7 nM. After incubating for 1 h at 4° C., the media was removed and the cells washed with fresh cold media followed by the addition of a 1:20,000 dilution of goat-antihuman horseradish peroxidase-conjugated secondary antibody (Jackson Immunoresearch, West Grove, Pa.) for 1 h at 4° C. The plates were again washed before the addition of the LumiGLO reagent. Plates were read for luminescence using an Envision plate reader (Perkin Elmer, Boston Mass.). Data were analyzed by non-linear regression to determine the equilibrium dissociation constant (KD). Statistical comparisons of KD-values were made with Prism GraphPad Software (v4.03) (Advanced Graphics Software, Inc.; Encinitas, Calif.) using an F-Test on the best-fit curves for the data. Significance was set at P<0.05.

Another series relates to BxPC-3. Put plainly: dsDNA breaks, γH2AX flow cytometry. It is filed as cell-based, human. Conditions: 20 μg/ml for 30 min. On the procedure:
For drug activity testing, BxPC-3 cells were seeded in 6-well plates at 5×10^5 cells/well and held at 37° C. overnight. […] The following morning, cells were trypsinized briefly, spun down, stained with Fixable Viability Stain 450 (BD Biosciences, San Jose, Calif.), washed with 1% BSA-PBS, and then fixed in 4% formalin for 15 min, washed again and permeabilized in 0.15% Triton-X100 in PBS for another 15 min. After washing twice with 1% BSA-PBS, cells were incubated with mouse anti-γH2AX-AF488 (EMD Millipore Corporation, Temecula, Calif.) for 45 min at 4° C. The signal intensity of γH2AX was measured by flow cytometry using a BD FACSCanto (BD Biosciences, San Jose, Calif.).
For orientation: Flow cytometry measures light scatter and fluorescence of single cells or particles in a stream.

Another series relates to p53 in BxPC-3 and Calu-3. Put plainly: p53 expression. Format: cell-based, human. The protocol:
In addition, p53 expression in cells exposed to the ADC was higher in both cell lines compared to SN-38 (not shown). […] In terms of later apoptotic events, cleavage of PARP was evident in both cell lines when incubated with either SN-38 or the conjugate (not shown). […] The higher degree of cleavage with free SN-38 over the ADC was consistent with the cytotoxicity findings.

The conditions of series [2]: mouse, in vivo, iv, 200 ug. The source says: ELISA was utilized to determine serum concentrations of total hRS7 IgG by competing for the binding to an anti-hRS7 IgG idiotype antibody with a horseradish peroxidase conjugate of hRS7. […] Pharmacokinetic (PK) parameters were computed by noncompartmental analysis using Phoenix WinNonlin software (version 6.3; Pharsight Corp., Mountainview, Calif.).

Series [3] in a line: Phase I/II clinical trial of IMMU-132, immunogenicity. Format: in vivo, human. As to conditions: repeated dosing.
The subject of another series is Capan-1 tumors. As to the kind of experiment: CL2 vs CL2A linker, Capan-1 xenograft. Format: in vivo, mice. Conditions: 0.2 mg/kg SN-38 twice weekly × 4 weeks. The protocol: FIG. 4C. […] Capan-1 mice (N=10) were treated with 0.2 mg/kg ADC and tumors measured weekly.
The test system of the next series is esophageal cancer. As to the kind of experiment: Phase I/II clinical trial of IMMU-132, esophageal. Format: in vivo, human.
Series [4] relates to metastatic pancreatic cancer. Put plainly: Phase I/II clinical trial of IMMU-132, PDC. It is filed as in vivo, human.
Series [5] relates to p21^WAF1/Cip1 in MDA-MB-468. As to the kind of experiment: immunoblotting of apoptotic pathway. Format: cell-based, human. As to conditions: by 48 h. The protocol: Cells (2×10^6) were plated in 6-well plates overnight. […] Parental hRS7 was used as a control for the ADC.
In general terms: In western blotting, separated proteins are transferred to a membrane and probed.

Entries after “also recorded” stand apart in the source; their conditions may differ. Read-outs that look alike come from different tables or passages of the source.

With hRS7 IgG, the “anti-tumor activity of unconjugated antibody” value in the series on Capan-1 xenografts (given alone) is given as “Neither unconjugated hPAM4 nor hRS7 antibodies had anti-tumor activity when given alone”. For the same substance, in the series on MDA-MB-468, the specific lysis is listed as 29.8±2.6%. Moreover, the KD result in series [1] is given as “in the sub-nanomolar range”. In the series on BxPC-3, the “Mean Fluorescence Intensity (γH2AX)” value was found to be 2297 ± 18 and the “Percent Positive (γH2AX)” value was determined as 13.0 ± 0.6%. Moreover, the “time to upregulation of p53” value with p53 in BxPC-3 and Calu-3 came out at 48 h. In series [2], the “alpha half-life, hRS7 IgG” value is “approximately 3 h” and the “beta half-life, hRS7 IgG” value is recorded as about 200 h.

For the substance IMMU-132, the “mice tumor-free after 20 weeks” value in the series on Capan-1 xenografts (ADC alone) was 1 of 10. In the series on MDA-MB-468, this substance gave a specific lysis of 8.6±2.6%. In addition, the KD entry in series [1] is listed as “in the sub-nanomolar range”. The “Mean Fluorescence Intensity (γH2AX)” value in the series on BxPC-3 was determined as 5349 ± 234. Also, the “anti-hRS7 / anti-SN-38 antibody response” value in series [3] is recorded as “No anti-hRS7 or anti-SN-38 antibodies were detected; also recorded: no anti-hRS7 or anti-SN-38 antibody response has been detected; also recorded: none of the patients developed an antibody response to IMMU-132 or SN-38”. In addition, the “anti-hRS7 / anti-SN-38 antibody response” value in series [3] (listed as sacituzumab govitecan) is “no antibody response to the hRS7 IgG or SN-38 was detected”. In the series with small cell lung cancer (of 4 assessable patients), this substance returned a PD of 2 and a PR of 2. In the series with small cell lung cancer (out of 25 assessable patients, 8 or 10 mg/kg), this substance came in with a PR of 6. For the same substance, in the series with Capan-1 tumors, the “mice tumor-free at end of study (day 140)” value was determined as 50%. In the series on esophageal cancer (of 4 assessable patients), this substance showed a PD of 1 and a PR of 1. Also, the “duration of SD” value in the series on esophageal cancer (patient 25, 18 then 13.5 mg/kg) turned out to be 30 weeks. Also, the “decrease in serum CA19-9 titers” value in series [4] (3 patients with stable disease) is 23 to 72%. Further, the “duration of stable disease, range” value in series [4] (8 patients) lay in the range of 8 to 21.4 wks. The same substance gave a stable disease in [4] (13 CT-assessable PDC patients) of 62%. Besides, in [4] (CT-assessable PDC patients, 8.0 weeks in last prior therapy), the “median TTP / duration of SD” value is recorded as 12.7 wks. Besides, the “TTP, range” value in series [4] (PDC patients) fell in the range of 2 to 21.4 wks. For the same substance, in series [4] (Phase I, N=7), the “time to progression, range” value was 1.0 to 4.0 months. For the same substance, in [4] (all 14 PDC patients), the “median TTP” value came out at 11.9 wks. In addition, in series [5], the “decrease of p21^WAF1/Cip1” value stood at 43%. In the series with p53 in BxPC-3 and Calu-3, the “time to upregulation of p53” value was at most 24 h. Besides, in series [2], the “MRT, carrier hRS7 antibody” value is given as about 300 h; the “alpha half-life, hRS7 IgG” value is reported as “approximately 3 h”; the “beta half-life, hRS7 IgG” value was about 200 h; the “half-life, intact conjugate” value is on record as 11 h.
